Data published in patent US20260008760A1, “DIPEPTIDYL PEPTIDASE 1 INHIBITORS AND USES THEREOF” (Insmed Incorporated, priority 2024, published 2026).

Legend:
human DPP1 enzyme = human DPP1 enzyme (Homo sapiens, UniProt P53634); test: Human DPP1 Enzyme Single-Point Percent Inhibition Testing (HL-60 lysate); assay type: biochemical; design: A crude lysate of HL-60 cells (ATCC; Manassas, VA) was used as a source of human DPP1 enzyme; host or cells: HL-60 cells (crude lysate); details: final compound concentration of 10 nM, 400 μM H-Gly-Arg-AMC, n = 1
Sequence of human DPP1 enzyme (P53634 25-463): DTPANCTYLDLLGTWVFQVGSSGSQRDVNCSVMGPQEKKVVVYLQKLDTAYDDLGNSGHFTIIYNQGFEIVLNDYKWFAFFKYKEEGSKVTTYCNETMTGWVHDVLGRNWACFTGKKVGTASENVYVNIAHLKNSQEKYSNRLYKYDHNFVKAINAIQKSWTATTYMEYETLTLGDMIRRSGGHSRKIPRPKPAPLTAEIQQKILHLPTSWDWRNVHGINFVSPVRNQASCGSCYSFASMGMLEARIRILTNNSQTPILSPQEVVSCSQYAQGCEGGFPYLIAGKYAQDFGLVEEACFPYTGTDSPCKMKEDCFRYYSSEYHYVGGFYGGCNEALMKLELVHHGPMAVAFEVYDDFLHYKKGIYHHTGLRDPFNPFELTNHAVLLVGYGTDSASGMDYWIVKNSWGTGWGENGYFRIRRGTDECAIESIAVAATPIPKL
Protocol: Example 98. Human DPP1 Enzyme Single-Point Percent Inhibition Testing
A crude lysate of HL-60 cells (ATCC; Manassas, VA) was used as a source of human DPP1 enzyme in the assay. Lysate was prepared in 1% Triton X-100 in PBS at a concentration of 20,000 live cells per μL of lysis buffer and was centrifuged at 16,000 rcf for 10 minutes at 4° C., after which supernatant was collected and flash-frozen in liquid nitrogen. Test articles were applied to human DPP1 enzyme in Assay Buffer (25 mM MES pH 6.0, 50 mM NaCl, 5 mM DTT) in a total reaction volume of 125 μL. 25 μL of compound diluted to 50 nM in Assay Buffer plus 5% DMSO was first added to 50 μL of HL-60 lysate diluted to contain a DPP1 enzyme concentration of roughly 1 ng/μL and allowed to pre-incubate for 10 minutes at 37° C. after which 50 μL of 1000 μM H-Gly-Arg-AMC substrate (Bachem; St. Torrance, CA) was added, giving final compound concentration of 10 nM, a final substrate concentration of 400 μM and a final DMSO concentration of 1%. Substrate cleavage was measured for 90 minutes at 37° C., with fluorescence at Excitation/Emission 350/450 nm measured every 5 minutes. DPP1 concentration was interpolated based on its activity relative to a standard curve of activated human recombinant DPP1 enzyme. Percent inhibition at 10 nM was calculated for each test article based on remaining DPP1 activity compared to enzyme activity in wells that received only vehicle control.

DPP1 in HL-60 cells = DPP1 in HL-60 cells (Homo sapiens, UniProt P53634); test: DPP1 Cell Single-Point Percent Inhibition Testing; assay type: cell-based; design: host or cells: HL-60 cells; details: final compound concentration 5 nM, n = 1
Sequence of DPP1 in HL-60 cells (P53634 25-463): as above
Protocol: Example 100. DPP1 Cell Single-Point Percent Inhibition Testing
HL-60 cells (ATCC; Manassas, VA) were maintained in RPMI-1640 supplemented with 20% heat-inactivated FBS and 1× Antibiotic Antimycotic (Cytiva; Marlborough, MA). Media was changed every three to four days and cells were not allowed to exceed 1×10^6 cells per mL. Prior to assay, cells were collected by centrifugation at 500 rcf for 3 minutes, resuspended in RPMI (with no additional supplements) and counted. Cells were diluted in RPMI to a concentration of 5×10^5 live cells per mL and transferred to black 96-well plates for assay, 60 μL per well. Test articles were diluted to 25 nM in RPMI plus 0.5% DMSO, and 20 μL was added to each assay well. Compound was allowed to pre-incubate with cells with gentle shaking at 100 rpm for 60 minutes at 37° C. in a cell culture incubator maintained at 5% CO2, after which 20 μL of 500 μM H-Gly-Phe-AFC cell-permeable substrate (MP Biomedicals; Solon, OH) in RPMI was added to each well, giving final compound concentration of 5 nM, a final substrate concentration of 100 μM and a final DMSO concentration of 0.1%. Plates were returned to the incubator with shaking at 100 rpm for 30 minutes, after which fluorescence was measured at Excitation/Emission 400/505 nm. Percent Inhibition was calculated from RFU values by first subtracting background values (wells in which RPMI was substituted for cells) from each well, and then subtracting background-subtracted RFU derived from wells that received a final concentration of 10 μM brensocatib. This value represents the non-specific substrate cleavage from the HL-60 cells, and the remaining RFU should theoretically be solely the contribution of DPP1 enzyme activity. The final percent inhibition value was calculated for each test article based on remaining RFU compared to RFU from wells that received only vehicle control.

SMILES	inhibition at 0.01 µM (human DPP1 enzyme) [%]	inhibition at 0.005 µM (DPP1 in HL-60 cells) [%]
CN1CCC2(C1)OC(=O)c1ccc(-c3ccc(C[C@@H](C#N)NC(=O)[C@@H]4CNCCCCO4)c(F)c3)cc12 (stereo partly drawn) [Compound 43]	40 to 66.7	≤ 76.5
CO[C@@H]1CCNC[C@@H](C(=O)N[C@H](C#N)Cc2cc3c(cc2F)-c2ccc(C#N)cc2CO3)OC1 [Compound B20]	≥ 66.7	≥ 93.9
C[C@@H]1NC[C@@H](C(=O)N[C@H](C#N)Cc2ccc(-c3cnc4c(n3)CCCC4)cc2)OC[C@@H]1O [Compound A108]	≤ 40	≤ 76.5
N#C[C@H](Cc1ccc(-c2cnc3c(n2)CCCC3)cc1)NC(=O)[C@@H]1CNCCCCO1 [Compound A114]	≤ 40	≤ 76.5
CO[C@H]1CCO[C@H](C(=O)N[C@H](C#N)Cc2ccc(-c3ccc4nnn(C)c4c3)cc2)CNC1 [Compound H18]	≤ 40	≤ 76.5
CO[C@H]1CCO[C@H](C(=O)N[C@H](C#N)Cc2ccc(-c3ccc4c(c3)C3(CCN(C5COC5)CC3)OC4)cc2)CNC1 [Compound F22]	40 to 66.7	≤ 76.5
COC1CNC[C@@H](C(=O)N[C@H](C#N)Cc2ccc(-c3ccc4nnn(C)c4c3)cc2F)OC1 (stereo partly drawn) [Compound H14]	≥ 66.7	76.5 to 93.9
CO[C@H]1CCO[C@H](C(=O)N[C@H](C#N)Cc2ccc(-c3cc4c(C)ncc(C)n4c3)cc2)CNC1 [Compound A128]	40 to 66.7	76.5 to 93.9
COC1CNC[C@@H](C(=O)N[C@H](C#N)Cc2ccc(-c3ccc4c(n3)CCCN4)cc2)OC1 (stereo partly drawn) [Compound A87]	≥ 66.7	76.5 to 93.9
CO[C@H]1CCO[C@H](C(=O)N[C@H](C#N)Cc2ccc(-c3cnc4c(n3)CCCC4)cc2F)CNC1 [Compound A97]	40 to 66.7	≤ 76.5
CO[C@@H]1CCNC[C@@H](C(=O)N[C@H](C#N)Cc2ccc(-c3cc4c(C)nc(C)c(C)n4c3)cc2)OC1 [Compound A123]	≥ 66.7	≥ 93.9
CCN1C(=O)Cc2ccc(-c3ccc(C[C@@H](C#N)NC(=O)[C@@H]4CNC[C@@H](OC)CCO4)c(F)c3)cc21 [Compound G6]	≥ 66.7	≤ 76.5
CO[C@@H]1CCNC[C@@H](C(=O)N[C@H](C#N)Cc2ccc(-c3ccc4cnn(C5CCN(C)CC5)c4c3)cc2)OC1 [Compound H3]	≥ 66.7	≤ 76.5
CCN1C(=O)Cc2ccc(-c3ccc(C[C@@H](C#N)NC(=O)[C@@H]4CN[C@@H](C)[C@H](O)CO4)c(F)c3)cc21 [Compound G8]	≥ 66.7	≤ 76.5
N#CC(Cc1cc2c(cc1F)-c1cc(C3COC3)c(F)cc1CO2)NC(=O)[C@@H]1CNCCCO1 (stereo partly drawn) [Compound B31]	40 to 66.7	76.5 to 93.9
CO[C@H]1CCO[C@H](C(=O)N[C@H](C#N)Cc2ccc(-c3ccc4cnn(C5CCN(C)CC5)c4c3)cc2F)CNC1 [Compound H16]	≥ 66.7	≤ 76.5
CO[C@@H]1CCNC[C@@H](C(=O)N[C@H](C#N)Cc2ccc(-c3ccc4c(c3)C3(CCN(C5COC5)CC3)OC4)cc2)OC1 [Compound F9]	≥ 66.7	≤ 76.5
N#C[C@H](Cc1ccc(-c2ccn3cnnc3c2)cc1)NC(=O)[C@@H]1CNCCCCO1 [Compound H44]	≤ 40	≤ 76.5
Cn1c(=O)oc2cc3c(cc21)-c1cc(F)c(CC(C#N)NC(=O)[C@@H]2CNCCCO2)cc1OC3 (stereo partly drawn) [Compound C28]	≥ 66.7	76.5 to 93.9
COC1CNC[C@@H](C(=O)N[C@H](C#N)Cc2ccc(-c3cc4c(C)nc(C)cn4c3)cc2)OC1 (stereo partly drawn) [Compound A86]	40 to 66.7	≤ 76.5

SMILES	inhibition at 0.01 µM (human DPP1 enzyme) [%]	inhibition at 0.005 µM (DPP1 in HL-60 cells) [%]
CO[C@H]1CCO[C@H](C(=O)N[C@H](C#N)Cc2cc3c(cc2F)-c2ccc(C#N)cc2CO3)CNC1 [Compound B24]	40 to 66.7	≤ 76.5
COC1CNC[C@@H](C(=O)N[C@H](C#N)Cc2ccc(-c3ccc4cnn(C5CCN(C)CC5)c4c3)cc2)OC1 (stereo partly drawn) [Compound H9]	≥ 66.7	≤ 76.5
CO[C@H]1CCO[C@H](C(=O)NC(C#N)Cc2cc3c(cc2F)-c2ccc(F)cc2CO3)CNC1 (stereo partly drawn) [Compound B26]	40 to 66.7	≤ 76.5
C[C@@H]1NC[C@@H](C(=O)N[C@H](C#N)Cc2ccc(-c3ccc4cnn(C5CCN(C)CC5)c4c3)cc2F)OC[C@@H]1O [Compound H28]	≥ 66.7	≤ 76.5
C[C@@H]1NC[C@@H](C(=O)N[C@H](C#N)Cc2ccc(-c3ccn4ccnc4c3)cc2)OC[C@H]1O [Compound H42]	≥ 66.7	≤ 76.5
N#C[C@H](Cc1ccc(-c2ccc3c(c2)C2(CCN(C4CCC4)CC2)OC3)cc1F)NC(=O)[C@@H]1CNCCCCO1 [Compound 44]	40 to 66.7	≤ 76.5
CO[C@@H]1CCNC[C@@H](C(=O)NC(C#N)Cc2cc3c(cc2F)-c2cc4c(cc2CO3)oc(=O)n4C)OC1 (stereo partly drawn) [Compound C11]	≥ 66.7	76.5 to 93.9
CO[C@H]1CCO[C@H](C(=O)N[C@H](C#N)Cc2ccc(-c3ccc4cnn(C)c4c3)cc2F)CNC1 [Compound H19]	≥ 66.7	≤ 76.5
N#C[C@H](Cc1ccc(-c2ccc(S(=O)(=O)N3CCC3)cc2)cc1F)NC(=O)[C@@H]1CNCCCO1 [Compound 49]	≤ 40	≤ 76.5
CO[C@H]1CCO[C@H](C(=O)N[C@H](C#N)Cc2ccc(-c3ccc4c(c3)C3(CN(C)C3)OC4=O)cc2)CNC1 [Compound F20]	40 to 66.7	≤ 76.5
CO[C@H]1CCO[C@H](C(=O)NC(C#N)Cc2cc3c(cc2F)-c2cc(C#N)ccc2CO3)CNC1 (stereo partly drawn) [Compound B25]	40 to 66.7	≤ 76.5
N#C[C@H](Cc1ccc(-c2cnc3c(n2)CCCC3)cc1F)NC(=O)[C@@H]1CNCCCO1 [Compound A120]	≤ 40	≤ 76.5
Cn1c(=O)oc2ccc3c(c21)COc1cc(CC(C#N)NC(=O)[C@@H]2CNCCCCO2)c(F)cc1-3 (stereo partly drawn) [Compound C26]	≤ 40	≤ 76.5
C[C@@H]1NC[C@@H](C(=O)N[C@H](C#N)Cc2ccc(-c3ccn4ccnc4c3)cc2)OC[C@@H]1O [Compound H43]	≤ 40	≤ 76.5
CO[C@H]1CCO[C@H](C(=O)N[C@H](C#N)Cc2ccc(-c3cc4c(C)nc(C)cn4c3)cc2F)CNC1 [Compound A94]	≤ 40	≤ 76.5
CN1CC2(C1)OC(=O)c1ccc(-c3ccc(C[C@@H](C#N)NC(=O)[C@@H]4CNCCCCO4)cc3)cc12 [Compound 37]	≤ 40	≤ 76.5
CO[C@H]1CCO[C@H](C(=O)N[C@H](C#N)Cc2ccc(-c3ccc4nnn(C)c4c3)cc2F)CNC1 [Compound H20]	40 to 66.7	≤ 76.5
N#C[C@H](Cc1ccc(-c2ccc3c(n2)CCCN3)cc1)NC(=O)[C@@H]1CNCCCO1 [Compound A117]	≤ 40	≤ 76.5
Cc1cn2cc(-c3ccc(C[C@@H](C#N)NC(=O)[C@@H]4CN[C@@H](C)[C@@H](O)CO4)cc3)cc2c(C)n1 [Compound A104]	≤ 40	≤ 76.5
